{"source": "paper PMC5218480", "about": "(PLoS ONE, 2017)", "system": "MV-4-11 cells", "assay": "Gene expression microarray analysis (Affymetrix PrimeView) and GSEA", "assay_type": "cell-based, human", "design": "RFU PODN (11730768_x_at) / Fold change /veh PODN (11730768_x_at) / RFU LINC00158 (11744669_a_at) / Fold change /veh LINC00158 (11744669_a_at) / RFU DUSP10 (11751237_a_at) / Fold change /veh DUSP10 (11751237_a_at) / RFU ID3 (11757404_x_at) / Fold change /veh ID3 (11757404_x_at) / RFU PLEKHG5 (11737974_s_at) / Fold change /veh PLEKHG5 (11737974_s_at) / RFU LRRC4B (11730491_at) / Fold change /veh LRRC4B (11730491_at) / RFU GIMAP4 (11747438_a_at) / Fold change /veh GIMAP4 (11747438_a_at) / RFU KRT8 (11758183_x_at) / Fold change /veh KRT8 (11758183_x_at) / RFU CNN1 (11734310_a_at) / Fold change /veh CNN1 (11734310_a_at) / RFU VPS37D (11726825_at) / Fold change /veh VPS37D (11726825_at) / RFU C10orf10 (11716522_x_at) / Fold change /veh C10orf10 (11716522_x_at) / RFU KIR2DL2 /// KIR2DL4 /// KIR2DL5A /// KIR2DL5B /// KIR2DS1 /// KIR2DS2 /// KIR2DS3 /// KIR2DS4 /// KIR3DL3 /// KIR3DL3 /// KIR3DS1 (11738374_at) / Fold change /veh KIR2DL2 /// KIR2DL4 /// KIR2DL5A /// KIR2DL5B /// KIR2DS1 /// KIR2DS2 /// KIR2DS3 /// KIR2DS4 /// KIR3DL3 /// KIR3DL3 /// KIR3DS1 (11738374_at) / RFU C1QL1 (11718748_at) / Fold change /veh C1QL1 (11718748_at) / RFU TMPRSS4 (11747572_a_at) / Fold change /veh TMPRSS4 (11747572_a_at) / RFU HAMP (11756126_x_at) / Fold change /veh HAMP (11756126_x_at) / RFU RNFT2 (11725882_a_at) / Fold change /veh RNFT2 (11725882_a_at) / RFU NR4A2 (11747474_a_at) / Fold change /veh NR4A2 (11747474_a_at) / RFU ABCC12 (11746883_a_at) / Fold change /veh ABCC12 (11746883_a_at) / RFU TMEM136 (11760407_x_at) / Fold change /veh TMEM136 (11760407_x_at) / RFU CLDN22 /// WWC2 (11732394_at) / Fold change /veh CLDN22 /// WWC2 (11732394_at) / RFU HLA-DPB1 (11760878_x_at) / Fold change /veh HLA-DPB1 (11760878_x_at) / RFU SPINT1 (11716480_a_at) / Fold change /veh SPINT1 (11716480_a_at) / RFU GAP43 (11754022_s_at) / Fold change /veh GAP43 (11754022_s_at) / RFU A4GNT (11735810_at) / Fold change /veh A4GNT (11735810_at) / RFU PRB3 (11715151_x_at) / Fold change /veh PRB3 (11715151_x_at) / RFU TUBB4B (11761932_at) / Fold change /veh TUBB4B (11761932_at) / RFU CAPN14 (11732068_a_at) / Fold change /veh CAPN14 (11732068_a_at) / RFU TMCC2 (11721928_a_at) / Fold change /veh TMCC2 (11721928_a_at) / RFU IRGQ (11745062_a_at) / Fold change /veh IRGQ (11745062_a_at) / RFU FAM174B (11720279_a_at) / Fold change /veh FAM174B (11720279_a_at) / RFU TMPRSS4 (11748680_a_at) / Fold change /veh TMPRSS4 (11748680_a_at) / RFU FAM212B (11763350_a_at) / Fold change /veh FAM212B (11763350_a_at) / RFU PLEKHG5 (11743358_a_at) / Fold change /veh PLEKHG5 (11743358_a_at) / RFU ZSCAN30 (11745921_a_at) / Fold change /veh ZSCAN30 (11745921_a_at) / RFU CMKLR1 (11741424_a_at) / Fold change /veh CMKLR1 (11741424_a_at) / RFU LOC101060620 /// MAPK8IP1 (11723275_at) / Fold change /veh LOC101060620 /// MAPK8IP1 (11723275_at) / RFU SPTSSB (11747773_x_at) / Fold change /veh SPTSSB (11747773_x_at) / RFU PRSS12 (11739890_at) / Fold change /veh PRSS12 (11739890_at) / RFU BIN1 (11741810_x_at) / Fold change /veh BIN1 (11741810_x_at) / RFU WNT11 (11732464_a_at) / Fold change /veh WNT11 (11732464_a_at) / RFU C10orf10 (11716521_a_at) / Fold change /veh C10orf10 (11716521_a_at) / RFU C5orf56 (11738089_at) / Fold change /veh C5orf56 (11738089_at) / RFU CYB561 (11721691_x_at) / Fold change /veh CYB561 (11721691_x_at) / RFU ANKRD19P (11752326_a_at) / Fold change /veh ANKRD19P (11752326_a_at) / RFU OR2T12 /// OR2T33 /// OR2T8 (11738714_s_at) / Fold change /veh OR2T12 /// OR2T33 /// OR2T8 (11738714_s_at) / RFU VCAN (11748164_a_at) / Fold change /veh VCAN (11748164_a_at) / RFU JSRP1 (11732532_at) / Fold change /veh JSRP1 (11732532_at) / RFU KRTAP10-11 (11738290_x_at) / Fold change /veh KRTAP10-11 (11738290_x_at) / RFU MYO3A (11730013_a_at) / Fold change /veh MYO3A (11730013_a_at) / RFU EBF3 (11725865_a_at) / Fold change /veh EBF3 (11725865_a_at) / RFU CAMK2N1 (11719241_x_at) / Fold change /veh CAMK2N1 (11719241_x_at) / RFU C5orf56 (11738088_a_at) / Fold change /veh C5orf56 (11738088_a_at) / RFU OLFML3 (11715873_a_at) / Fold change /veh OLFML3 (11715873_a_at) / RFU LOC100653217 /// NTM (11731650_a_at) / Fold change /veh LOC100653217 /// NTM (11731650_a_at) / RFU MAPK11 (11762145_a_at) / Fold change /veh MAPK11 (11762145_a_at) / RFU FIZ1 (11724087_x_at) / Fold change /veh FIZ1 (11724087_x_at) / RFU OASL (11726364_x_at) / Fold change /veh OASL (11726364_x_at) / RFU SOX15 (11748057_x_at) / Fold change /veh SOX15 (11748057_x_at) / RFU CD79A (11719716_a_at) / Fold change /veh CD79A (11719716_a_at) / RFU HIST1H1D (11736915_at) / Fold change /veh HIST1H1D (11736915_at) / RFU CASKIN2 (11723855_a_at) / Fold change /veh CASKIN2 (11723855_a_at) / RFU LOC730098 (11760151_x_at) / Fold change /veh LOC730098 (11760151_x_at) / RFU OR4N2 (11742367_at) / Fold change /veh OR4N2 (11742367_at) / RFU PRRT2 (11749266_a_at) / Fold change /veh PRRT2 (11749266_a_at) / RFU SNX32 (11753110_a_at) / Fold change /veh SNX32 (11753110_a_at) / RFU CDHR5 (11726645_a_at) / Fold change /veh CDHR5 (11726645_a_at) / RFU RCAN1 (11760418_a_at) / Fold change /veh RCAN1 (11760418_a_at) / RFU FAM167A (11723789_a_at) / Fold change /veh FAM167A (11723789_a_at) / RFU FAM26E (11764081_at) / Fold change /veh FAM26E (11764081_at) / RFU ISYNA1 (11749810_s_at) / Fold change /veh ISYNA1 (11749810_s_at) / RFU ACY1 (11761880_at) / Fold change /veh ACY1 (11761880_at) / RFU 11764098_at / Fold change /veh 11764098_at / RFU SAMD14 (11745864_x_at) / Fold change /veh SAMD14 (11745864_x_at) / RFU NPB (11741838_a_at) / Fold change /veh NPB (11741838_a_at) / RFU TMPRSS6 (11731388_a_at) / Fold change /veh TMPRSS6 (11731388_a_at) / RFU KRTAP10-2 (11738614_at) / Fold change /veh KRTAP10-2 (11738614_at) / RFU ARHGAP8 /// PRR5-ARHGAP8 (11727945_x_at) / Fold change /veh ARHGAP8 /// PRR5-ARHGAP8 (11727945_x_at) / RFU KRTAP5-7 /// NADSYN1 (11734609_at) / Fold change /veh KRTAP5-7 /// NADSYN1 (11734609_at) / RFU RASL12 (11751679_a_at) / Fold change /veh RASL12 (11751679_a_at) / RFU CDKN2B (11736163_a_at) / Fold change /veh CDKN2B (11736163_a_at) / RFU PRF1 (11729649_at) / Fold change /veh PRF1 (11729649_at) / RFU, ZNF638 /// ZNF638-IT1 / Fold change vs veh, ZNF638 /// ZNF638-IT1 / RFU, PANK3 / Fold change vs veh, PANK3 / RFU, SH3YL1 / Fold change vs veh, SH3YL1 / RFU, ZEB2 / Fold change vs veh, ZEB2 / RFU, NRIP1 / Fold change vs veh, NRIP1 / RFU, PTTG1IP / Fold change vs veh, PTTG1IP / RFU, CAPN2 / Fold change vs veh, CAPN2 / RFU, MED14 / Fold change vs veh, MED14 / RFU, SNORA58 / Fold change vs veh, SNORA58 / RFU, C1orf63 / Fold change vs veh, C1orf63 / RFU, LRRFIP1 / Fold change vs veh, LRRFIP1 / RFU, NDUFAF7 / Fold change vs veh, NDUFAF7 / RFU, SLC12A2 / Fold change vs veh, SLC12A2 / RFU, IBTK / Fold change vs veh, IBTK / RFU, ESF1 / Fold change vs veh, ESF1 / Fold change vs veh, TMEM50B / RFU, TAOK1 / Fold change vs veh, TAOK1 / RFU, ACBD3 / Fold change vs veh, ACBD3 / RFU, TMA16 / Fold change vs veh, TMA16 / RFU, RWDD3 / Fold change vs veh, RWDD3 / RFU, BCAT1 / Fold change vs veh, BCAT1 / RFU, EDEM3 / Fold change vs veh, EDEM3 / RFU, TMEM33 / Fold change vs veh, TMEM33 / RFU, WDR75 / Fold change vs veh, WDR75 / RFU, AHCTF1 / Fold change vs veh, AHCTF1 / RFU, TFRC / Fold change vs veh, TFRC / RFU, ZDHHC17 / Fold change vs veh, ZDHHC17 / RFU, NOM1 / Fold change vs veh, NOM1 / RFU, ARL8B / Fold change vs veh, ARL8B / RFU, ZBTB11 / Fold change vs veh, ZBTB11 / RFU, TAMM41 / Fold change vs veh, TAMM41 / RFU, KIAA1704 /// LOC100996395 / Fold change vs veh, KIAA1704 /// LOC100996395 / RFU, ING1 / Fold change vs veh, ING1 / RFU, TRMT61B / Fold change vs veh, TRMT61B / RFU, FUBP3 / Fold change vs veh, FUBP3 / RFU, TP53 / Fold change vs veh, TP53 / RFU, TNKS2 / Fold change vs veh, TNKS2 / RFU, ZFP14 / Fold change vs veh, ZFP14 / RFU, ACTR2 / Fold change vs veh, ACTR2 / RFU, PPP3R1 / Fold change vs veh, PPP3R1 / RFU, PIK3R1 / Fold change vs veh, PIK3R1 / RFU, HNRNPA1 / Fold change vs veh, HNRNPA1 / RFU, RNF170 / Fold change vs veh, RNF170 / RFU, ZNF28 / Fold change vs veh, ZNF28 / RFU, RNGTT / Fold change vs veh, RNGTT / RFU, OGT / Fold change vs veh, OGT / RFU, BRD1 / Fold change vs veh, BRD1 / RFU, MARS / Fold change vs veh, MARS / RFU, ZNF655 / Fold change vs veh, ZNF655 / RFU, FAHD1 / Fold change vs veh, FAHD1 / RFU, BDP1 / Fold change vs veh, BDP1 / RFU, LRRCC1 / Fold change vs veh, LRRCC1 / RFU, ARID1A / Fold change vs veh, ARID1A / RFU, ZNF146 / Fold change vs veh, ZNF146 / RFU, ZNF330 / Fold change vs veh, ZNF330 / RFU, GPN3 / Fold change vs veh, GPN3 / RFU, C9orf123 / Fold change vs veh, C9orf123 / RFU, N4BP2L2 / Fold change vs veh, N4BP2L2 / RFU, ARFIP1 / Fold change vs veh, ARFIP1 / RFU, FAM179B / Fold change vs veh, FAM179B / RFU, BCL10 / Fold change vs veh, BCL10 / RFU, UHRF1BP1L / Fold change vs veh, UHRF1BP1L / RFU, BET1 / Fold change vs veh, BET1 / RFU, CNOT2 / Fold change vs veh, CNOT2 / RFU, ZNF268 / Fold change vs veh, ZNF268 / Fold change vs veh, ZNF507 / RFU, DGCR2 / Fold change vs veh, DGCR2 / RFU, WDSUB1 / Fold change vs veh, WDSUB1 / Fold change vs veh, HSP90B1 /// MIR3652 / RFU, ADSS / Fold change vs veh, ADSS / RFU, GK / Fold change vs veh, GK / RFU, ZNF148 / Fold change vs veh, ZNF148 / RFU, TAF9 / Fold change vs veh, TAF9 / RFU, SLC1A5 / Fold change vs veh, SLC1A5 / RFU, SLMO2 / Fold change vs veh, SLMO2 / RFU, ABCC4 / Fold change vs veh, ABCC4 / RFU, LOC101060439 /// RAP1B / Fold change vs veh, LOC101060439 /// RAP1B / RFU, RFX7 / Fold change vs veh, RFX7 / RFU, GTPBP10 / Fold change vs veh, GTPBP10 / RFU, CNEP1R1 / Fold change vs veh, CNEP1R1 / RFU, BIVM-ERCC5 /// ERCC5 / Fold change vs veh, BIVM-ERCC5 /// ERCC5 / RFU, ILF3 / Fold change vs veh, ILF3 / RFU 11762660_at / Fold change /veh 11762660_at / RFU VCAN (11757783_s_at) / Fold change /veh VCAN (11757783_s_at) / RFU DDX43 (11728927_at) / Fold change /veh DDX43 (11728927_at) / RFU KRT8 (11758188_x_at) / Fold change /veh KRT8 (11758188_x_at) / RFU NKD1 (11759106_at) / Fold change /veh NKD1 (11759106_at) / RFU SRD5A1 (11742802_a_at) / Fold change /veh SRD5A1 (11742802_a_at) / RFU TPSAB1 /// TPSB2 (11721975_s_at) / Fold change /veh TPSAB1 /// TPSB2 (11721975_s_at) / RFU GSTM3 (11746129_a_at) / Fold change /veh GSTM3 (11746129_a_at) / RFU IL23R (11737362_x_at) / Fold change /veh IL23R (11737362_x_at) / RFU TMEM51 (11727254_a_at) / Fold change /veh TMEM51 (11727254_a_at) / RFU PIWIL2 (11732686_x_at) / Fold change /veh PIWIL2 (11732686_x_at) / RFU ORM1 (11744905_x_at) / Fold change /veh ORM1 (11744905_x_at) / RFU CCDC152 (11743942_at) / Fold change /veh CCDC152 (11743942_at) / RFU ECM1 (11717891_a_at) / Fold change /veh ECM1 (11717891_a_at) / RFU IL23R (11748794_a_at) / Fold change /veh IL23R (11748794_a_at) / RFU TNFAIP8L3 (11732012_x_at) / Fold change /veh TNFAIP8L3 (11732012_x_at) / RFU MBOAT4 (11741988_at) / Fold change /veh MBOAT4 (11741988_at) / RFU 11764193_at / Fold change /veh 11764193_at / RFU TMEM53 (11763286_at) / Fold change /veh TMEM53 (11763286_at) / RFU MAGEB2 (11727129_at) / Fold change /veh MAGEB2 (11727129_at) / RFU TMEM200A (11744735_a_at) / Fold change /veh TMEM200A (11744735_a_at) / RFU CCDC152 (11751479_a_at) / Fold change /veh CCDC152 (11751479_a_at) / RFU FAM211A (11726209_a_at) / Fold change /veh FAM211A (11726209_a_at) / RFU RGS16 (11746705_a_at) / Fold change /veh RGS16 (11746705_a_at) / RFU VCAN (11755009_s_at) / Fold change /veh VCAN (11755009_s_at) / RFU RHOB (11743442_s_at) / Fold change /veh RHOB (11743442_s_at) / RFU RGS16 (11720943_a_at) / Fold change /veh RGS16 (11720943_a_at) / RFU RGS16 (11720944_at) / Fold change /veh RGS16 (11720944_at) / RFU, VPS4B / Fold change vs veh, VPS4B / RFU, CREB1 / Fold change vs veh, CREB1 / RFU, DNAJC13 / Fold change vs veh, DNAJC13 / RFU, GNAQ / Fold change vs veh, GNAQ / RFU, CDK5R1 / Fold change vs veh, CDK5R1 / RFU, ZRANB3 / Fold change vs veh, ZRANB3 / RFU, CUL4A / Fold change vs veh, CUL4A / RFU, CCNY / Fold change vs veh, CCNY / RFU, UFL1 / Fold change vs veh, UFL1 / RFU, COG3 / Fold change vs veh, COG3 / RFU, DIAPH2 / Fold change vs veh, DIAPH2 / RFU, SKA2 / Fold change vs veh, SKA2 / RFU, AFF3 / Fold change vs veh, AFF3 / RFU, LMF1 / Fold change vs veh, LMF1 / RFU, IPO11 / Fold change vs veh, IPO11 / RFU, DFFB / Fold change vs veh, DFFB / RFU, FOXP1 / Fold change vs veh, FOXP1 / RFU, CARD8 / Fold change vs veh, CARD8 / RFU, STRN3 / Fold change vs veh, STRN3 / RFU, ADK / Fold change vs veh, ADK / RFU, RASSF2 / Fold change vs veh, RASSF2 / RFU, WIPF1 / Fold change vs veh, WIPF1 / RFU, LARP1B / Fold change vs veh, LARP1B / RFU, RASA1 / Fold change vs veh, RASA1 / RFU, RB1 / Fold change vs veh, RB1 / RFU, PPFIA1 / Fold change vs veh, PPFIA1 / RFU, MAT2A / Fold change vs veh, MAT2A / RFU, CCT5 / Fold change vs veh, CCT5 / RFU, WDR92 / Fold change vs veh, WDR92 / RFU, CUX1 / Fold change vs veh, CUX1 / RFU, TTC7A / Fold change vs veh, TTC7A / RFU, TMEM135 / Fold change vs veh, TMEM135 / RFU, DEPTOR / Fold change vs veh, DEPTOR / RFU, CPM / Fold change vs veh, CPM / RFU, DNAJB6 / Fold change vs veh, DNAJB6 / RFU, CACNA2D3 / Fold change vs veh, CACNA2D3 / RFU, DTX4 / Fold change vs veh, DTX4 / RFU, TFCP2 / Fold change vs veh, TFCP2 / RFU, GMCL1 /// GMCL1P1 / Fold change vs veh, GMCL1 /// GMCL1P1 / RFU, AEBP2 / Fold change vs veh, AEBP2 / RFU, SNHG1 /// SNORD22 /// SNORD25 /// SNORD26 /// SNORD27 /// SNORD28 /// SNORD29 /// SNORD31 / Fold change vs veh, SNHG1 /// SNORD22 /// SNORD25 /// SNORD26 /// SNORD27 /// SNORD28 /// SNORD29 /// SNORD31 / Fold change (Aza/veh), C12orf56 (ProbeSet 11735607_a_at) / Fold change (ACY-1035/veh), C12orf56 (ProbeSet 11735607_a_at) / Fold change (Aza/veh), FGFR1OP (ProbeSet 11751329_s_at) / Fold change (ACY-1035/veh), FGFR1OP (ProbeSet 11751329_s_at) / Fold change (Aza/veh), VPS36 (ProbeSet 11739960_a_at) / Fold change (ACY-1035/veh), VPS36 (ProbeSet 11739960_a_at) / RFU SYPL1 (11715823_x_at) / Fold change /veh SYPL1 (11715823_x_at) / RFU IGFBP7 (11715501_s_at) / Fold change /veh IGFBP7 (11715501_s_at) / RFU REEP3 (11722064_at) / Fold change /veh REEP3 (11722064_at) / RFU IGLL1 (11728026_x_at) / Fold change /veh IGLL1 (11728026_x_at): dose or concentration left out as unconfirmed", "conditions": "ProbeSet 11743580_s_at; LIST B", "data": [{"smiles": "Nc1ncn([C@@H]2O[C@H](CO)[C@@H](O)[C@H]2O)c(=O)n1", "note": "[azacitidine]", "values": [{"measurement": "RFU, ACTR2", "value": 932.68, "unit": "RFU"}]}]}
